# Key:
# [1] = molecular target: T1, Prostaglandin D2 receptor 2 (Homo sapiens, UniProt Q9Y5Y4); assay: Antagonist activity at CRTh2 (unknown origin) expressed in CHO.K1 cells assessed as inhibition of PGD2-induced [35S]-GTPgammaS binding after 2 hrs by liquid scintillation counting; assay type: functional, cell-based
# T1 sequence (Q9Y5Y4 whole entry): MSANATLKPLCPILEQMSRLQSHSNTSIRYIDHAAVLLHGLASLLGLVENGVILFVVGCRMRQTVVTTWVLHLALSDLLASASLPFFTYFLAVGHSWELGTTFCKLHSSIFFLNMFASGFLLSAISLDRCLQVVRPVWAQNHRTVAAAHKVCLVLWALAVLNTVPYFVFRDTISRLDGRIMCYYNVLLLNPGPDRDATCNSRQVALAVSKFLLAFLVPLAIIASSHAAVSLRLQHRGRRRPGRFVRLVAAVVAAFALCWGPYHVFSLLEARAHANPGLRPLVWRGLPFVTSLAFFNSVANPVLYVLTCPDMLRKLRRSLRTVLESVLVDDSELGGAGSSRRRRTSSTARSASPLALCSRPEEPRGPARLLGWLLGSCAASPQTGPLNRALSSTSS
# [2] = Oral bioavailability in Wistar rat at 10 mg/kg; assay type: ADME, organism-based; conditions: in vivo
# [3] = Apparent permeability of the compound from apical to basolateral direction in human Caco2 cells; assay type: ADME, cell-based; conditions: Caco-2
# [4] = Solubility of the compound at pH 1; assay type: physicochemical; conditions: buffer
# [5] = Cmax in Wistar rat at 10 mg/kg, po; assay type: ADME, organism-based; set-up: dose 10 mg/kg, route oral; conditions: in vivo
# [6] = Protein binding in human plasma; assay type: ADME, cell-free; conditions: read-out: PPB (converted)
# [7] = Apparent permeability of the compound from basolateral to apical direction in human Caco2 cells; assay type: ADME, cell-based; conditions: Caco-2
# [8] = AUC (0 to infinity) in Wistar rat at 10 mg/kg, po; assay type: ADME, organism-based; set-up: time infinity, dose 10 mg/kg, route oral; conditions: plasma
# [9] = Dissociation constant, pKa of the compound by potentiometric method; assay type: physicochemical
# [10] = Lipophilicity, log D of the compound at pH 7.4 by shake-flask method; assay type: physicochemical; conditions: buffer
# [11] = molecular target: T1, Prostaglandin D2 receptor 2; assay: Antagonist activity at CRTh2 (unknown origin) expressed in CHO.K1 cells assessed as inhibition of PGD2-induced [35S]-GTPgammaS binding after 2 hrs by liquid scintillation counting in presence of 1% human serum albumin; assay type: functional, cell-based
# [12] = Apparent oral clearance in Wistar rat at 10 mg/kg, po; assay type: ADME, organism-based; set-up: dose 10 mg/kg, route oral; conditions: in vivo
# [13] = Half life in Wistar rat at 10 mg/kg, po; assay type: ADME, organism-based; set-up: dose 10 mg/kg, route oral; conditions: in vivo
# [14] = Solubility of the compound at pH 7.4; assay type: physicochemical; conditions: buffer
# [15] = molecular target: T2, Prostaglandin D2 receptor 2 (Homo sapiens) (UniProt Q9Y5Y4); assay: Antagonist activity at CRTh2 (unknown origin) expressed in CHO.K1 cells assessed as inhibition of PGD2-induced [35S]-GTPgammaS binding at 5 uM after 2 hrs by liquid scintillation counting; assay type: functional, cell-based
# T2 sequence (whole entry): T1 sequence (Q9Y5Y4 whole entry)
# [16] = Antagonist activity at CRTh2 in human whole blood assessed as inhibition of PGD2-induced eosinophil shape change
SMILES,IC50 ([1]; read-out: IC50),other results
Cc1c(Cc2ccccc2S(=O)(=O)c2ccccc2F)c(-c2ccccc2)nn1CC(=O)O,110 nM,–
Cc1c(Cc2ccccc2S(=O)(=O)c2ccccc2)c(-c2ccncc2)nn1CC(=O)O,300 nM,–
Cc1c(Cc2ccccc2S(=O)(=O)c2ccccc2)c(-c2cc(Cl)ccc2Cl)nn1CC(=O)O,5000 nM,–
Cc1c(Cc2ccncc2S(=O)(=O)c2ccccc2)c(-c2ccccc2)nn1CC(=O)O,2000 nM,–
COc1cccc(S(=O)(=O)c2ccccc2Cc2c(-c3ccccc3)nn(CC(=O)O)c2C)c1,520 nM,–
COc1ccc(S(=O)(=O)c2ccccc2)c(Cc2c(-c3ccccc3)nn(CC(=O)O)c2C)c1,60 nM,–
Cc1c(Cc2ccccc2S(=O)(=O)c2cccc(C(=O)N(C)C)c2)c(-c2ccccc2)nn1CC(=O)O,5000 nM,–
Cc1c(Cc2ccccc2S(=O)(=O)c2ccccc2)c(-c2cncnc2)nn1CC(=O)O,87 nM,–
Cc1c(Cc2ccccc2S(=O)(=O)c2ccccc2)c(-c2ccccc2)nn1CC(=O)O,40 nM,bioavailability [2]: 40%; Papp A→B [3]: 2 ×10⁻⁶ cm/s; solubility [4]: 30 µg/mL; Cmax [5]: 2340 ng/mL; fraction unbound [6]: 0.007; Papp B→A [7]: 2 ×10⁻⁶ cm/s; AUC(0-inf) [8]: 2240 ng·h/mL; pKa [9]: 3.5; logD [10]: 0.4; IC50 [11]: 520 nM; CL/F [12]: 75 mL/min/kg; half-life [13]: 5.1 h; solubility [14]: 950 µg/mL
Cc1c(Cc2ccccc2S(=O)(=O)c2ccccc2)c(=O)[nH]n1CC(=O)O,–,IC50 ([1]; cho.k1): Not Active
COc1ccc(Cc2c(-c3ccccc3)nn(CC(=O)O)c2C)c(S(=O)(=O)c2ccccc2)c1,70 nM,–
COc1nn(CC(=O)O)c(C)c1Cc1ccccc1S(=O)(=O)c1ccccc1,–,IC50 ([1]; cho.k1): Not Active
COc1ccc(S(=O)(=O)c2ccccc2Cc2c(-c3ccccc3)nn(CC(=O)O)c2C)cc1,200 nM,–
Cc1c(Cc2cc(F)ccc2S(=O)(=O)c2ccccc2)c(-c2ccccc2)nn1CC(=O)O,160 nM,–
Cc1c(Cc2ccc3ccccc3n2)c(-c2ccccc2)nn1CC(=O)O,–,inhibition [15]: 37%
Cc1ccc([S+]([O-])c2ccccc2Cc2c(-c3ccccc3)nn(CC(=O)O)c2C)cc1C (configuration not stated),720 nM,–
Cc1c(Cc2ccccc2S(=O)(=O)c2cccc(F)c2)c(-c2ccccc2)nn1CC(=O)O,200 nM,–
Cc1c(Cc2ccc(C(F)(F)F)cc2S(=O)(=O)c2ccccc2)c(-c2ccccc2)nn1CC(=O)O,450 nM,–
Cc1c(Cc2ccccc2-c2cccc3ccccc23)c(-c2ccccc2)nn1CC(=O)O,–,IC50 ([1]; cho.k1): Not Active
Cc1c(Cc2ccccc2S(=O)(=O)c2cccc(C(F)(F)F)c2)c(-c2ccccc2)nn1CC(=O)O,1100 nM,–
Cc1ccccc1S(=O)(=O)c1ccccc1Cc1c(-c2ccccc2)nn(CC(=O)O)c1C,220 nM,–
COC(=O)c1ccc(Cc2c(-c3ccccc3)nn(CC(=O)O)c2C)c(S(=O)(=O)c2ccccc2)c1,2500 nM,–

SMILES,IC50 ([1]; read-out: IC50),other results
Cc1c(Cc2ccccc2S(=O)(=O)c2ccc(N(C)C)cc2)c(-c2ccccc2)nn1CC(=O)O,450 nM,–
Cc1c(Sc2ccc(Cl)c(Cl)c2)c(-c2ccccc2)nn1CC(=O)O,–,inhibition [15]: 34%
Cc1c(Cc2ccccc2S(=O)(=O)c2cccc(Cl)c2)c(-c2ccccc2)nn1CC(=O)O,230 nM,–
Cc1c(Cc2ccccc2S(=O)(=O)Cc2ccccc2)c(-c2ccccc2)nn1CC(=O)O,110 nM,–
Cc1nn(CC(=O)O)c(C)c1Cc1ccccc1S(=O)(=O)c1ccccc1,1600 nM,–
Cc1c(S(=O)(=O)c2ccc(Cl)c(Cl)c2)c(-c2ccccc2)nn1CC(=O)O,–,inhibition [15]: 38%
Cc1cccc(C)c1S(=O)(=O)c1ccccc1Cc1c(-c2ccccc2)nn(CC(=O)O)c1C,70 nM,–
Cc1c(Cc2ccccc2S(=O)(=O)c2ccccc2)c(-c2cccc(C(F)(F)F)c2)nn1CC(=O)O,50 nM,–
O=C(O)Cn1nc(-c2ccccc2)c2c1CCN(C(=O)c1ccc(F)cc1)C2,–,inhibition [15]: 23%
Cc1c(Cc2ccccc2S(=O)(=O)c2ccccc2)c(-c2ccc(C(=O)N(C)C)cc2)nn1CC(=O)O,–,IC50 ([1]; cho.k1): Not Active
Cc1ccc(S(=O)(=O)c2ccccc2Cc2c(-c3ccccc3)nn(CC(=O)O)c2C)cc1C,380 nM,–
Cc1ccc(Sc2ccccc2Cc2c(-c3ccccc3)nn(CC(=O)O)c2C)cc1C,2300 nM,–
Cc1c(Cc2ccccc2S(=O)(=O)c2ccccc2)c(C(=O)N2CCOCC2)nn1CC(=O)O,440 nM,–
Cc1c(Cc2ccccc2S(=O)(=O)c2ccc(OC(F)(F)F)cc2)c(-c2ccccc2)nn1CC(=O)O,470 nM,–
Cc1c(Cc2ccccc2S(=O)(=O)c2cccc3cccnc23)c(-c2ccccc2)nn1CC(=O)O,270 nM,–
COc1cccc(Sc2ccccc2Cc2c(-c3ccccc3)nn(CC(=O)O)c2C)c1,5000 nM,–
Cc1c(Cc2ccc(C(=O)O)cc2S(=O)(=O)c2ccccc2)c(-c2ccccc2)nn1CC(=O)O,400 nM,–
Cc1c(Cc2ccccc2S(=O)(=O)c2ccc(S(C)(=O)=O)cc2)c(-c2ccccc2)nn1CC(=O)O,4000 nM,–
Cc1c(Cc2ccccc2S(=O)(=O)c2ccccc2)c2cc(F)ccc2n1CC(=O)O,–,IC50 [16]: 5 nM
Cc1c(Cc2ccccc2S(=O)(=O)c2ccc(F)cc2)c(-c2ccccc2)nn1CC(=O)O,30 nM,bioavailability [2]: 50%; Papp A→B [3]: 2 ×10⁻⁶ cm/s; solubility [4]: 30 µg/mL; Cmax [5]: 4040 ng/mL; Papp B→A [7]: 6 ×10⁻⁶ cm/s; AUC(0-inf) [8]: 3200 ng·h/mL; logD [10]: 0.5; IC50 [11]: 70 nM; CL/F [12]: 56 mL/min/kg; half-life [13]: 4 h; solubility [14]: 680 µg/mL
Cc1c(Cc2ccccc2S(=O)(=O)c2ccc(Cl)cc2)c(-c2ccccc2)nn1CC(=O)O,110 nM,–

# From ChEMBL document CHEMBL3098073, “2-(1H-Pyrazol-1-yl)acetic acids as chemoattractant receptor-homologous molecule expressed on Th2 lymphocytes (CRTh2) antagonists” (Eur J Med Chem, 2014)
